Columns and labels:
Format in all cases: biochemical
p110β/p85α = p110β/p85α (Homo sapiens, UniProt P42338); assay: Transcreener KINASE Assay, kinase inhibition of p110β/p85α; conditions: for PI3Kβ IH % @ 1 uM: 1 uM test compound; for IC50: read-out: PI3Kβ IC50
Procedure: (§1) PI3K kinases including p110α/p85α, p110δ/p85α and p110γ are purchased from Invitrogen, and p110β/p85α is from Millipore.
(§2) Primary screening data and IC50 values are measured using Transcreener™ KINASE Assay (Bellbrook, Catalog #3003-10K). […] It is a universal, homogenous, high throughput screening (HTS) technology using a far-red, competitive fluorescence polarization immunoassay based on the detection of ADP to monitor the activity of enzymes that catalyze group transfer reactions. Briefly, the Transcreener KINASE Assay is designed as a simple two-part, endpoint assay.
(§3) In the first step, the 25 ul kinase reaction is performed by preparing a reaction mixture containing 5 ul test compound (2% DMSO final concentration), 10 ul kinase, buffer (50 mM HEPES, 100 mM NaCl, 1 mM EGTA, 0.03% CHAPS, 3 mM MgCl2, and freshly supplemented 1 mM DTT), and 10 ul 30 uM PIP2/10 uM ATP. The plate is sealed and incubated for 80 min at room temperature. Next, 25 ul ADP detection mix is added per well. The plate is sealed again and incubated for 60 min at room temperature, and then measure fluorescence polarization by Tecan Infinite F500 Reader.
(§4) Data is analyzed and IC50s are generated using the add-in software for Microsoft Excel, Xlfit™ (version 2.0). IH %=(ADP amount under 2% DMSO-ADP amount under test compound)/ADP amount under 2% DMSO.

p110δ/p85α = p110δ/p85α (Homo sapiens, UniProt O00329); assay: Transcreener KINASE Assay, kinase inhibition of p110δ/p85α; conditions: for PI3Kδ IH % @ 1 uM: 1 uM test compound; for IC50: read-out: PI3Kδ IC50
Chain of p110δ/p85α (O00329 whole entry): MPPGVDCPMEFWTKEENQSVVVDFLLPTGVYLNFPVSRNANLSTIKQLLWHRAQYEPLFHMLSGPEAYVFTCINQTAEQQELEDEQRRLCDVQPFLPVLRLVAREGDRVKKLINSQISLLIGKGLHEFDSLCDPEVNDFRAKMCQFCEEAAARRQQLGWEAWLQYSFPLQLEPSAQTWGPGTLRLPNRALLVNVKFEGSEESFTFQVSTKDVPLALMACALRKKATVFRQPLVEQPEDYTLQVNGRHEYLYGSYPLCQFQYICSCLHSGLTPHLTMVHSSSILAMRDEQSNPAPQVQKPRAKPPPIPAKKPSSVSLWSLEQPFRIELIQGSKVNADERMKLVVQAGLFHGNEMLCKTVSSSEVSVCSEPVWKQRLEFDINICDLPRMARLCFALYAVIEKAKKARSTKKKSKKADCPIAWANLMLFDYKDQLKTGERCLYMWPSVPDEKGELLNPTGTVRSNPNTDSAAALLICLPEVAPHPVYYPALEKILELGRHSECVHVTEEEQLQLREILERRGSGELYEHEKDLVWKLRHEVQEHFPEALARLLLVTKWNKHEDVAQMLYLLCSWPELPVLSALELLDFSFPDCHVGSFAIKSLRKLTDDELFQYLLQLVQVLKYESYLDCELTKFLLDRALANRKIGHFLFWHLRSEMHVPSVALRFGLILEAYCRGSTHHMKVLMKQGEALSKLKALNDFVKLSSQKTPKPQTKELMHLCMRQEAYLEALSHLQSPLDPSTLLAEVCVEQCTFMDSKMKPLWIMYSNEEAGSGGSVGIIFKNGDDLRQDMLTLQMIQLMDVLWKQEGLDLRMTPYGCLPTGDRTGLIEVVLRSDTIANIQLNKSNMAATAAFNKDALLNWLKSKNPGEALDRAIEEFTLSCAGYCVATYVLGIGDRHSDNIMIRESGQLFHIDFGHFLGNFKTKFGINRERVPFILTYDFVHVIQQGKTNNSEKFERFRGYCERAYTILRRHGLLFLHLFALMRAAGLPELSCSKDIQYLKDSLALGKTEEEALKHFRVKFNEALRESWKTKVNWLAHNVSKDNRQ
Chain of p110δ/p85α (P27986 whole entry partner): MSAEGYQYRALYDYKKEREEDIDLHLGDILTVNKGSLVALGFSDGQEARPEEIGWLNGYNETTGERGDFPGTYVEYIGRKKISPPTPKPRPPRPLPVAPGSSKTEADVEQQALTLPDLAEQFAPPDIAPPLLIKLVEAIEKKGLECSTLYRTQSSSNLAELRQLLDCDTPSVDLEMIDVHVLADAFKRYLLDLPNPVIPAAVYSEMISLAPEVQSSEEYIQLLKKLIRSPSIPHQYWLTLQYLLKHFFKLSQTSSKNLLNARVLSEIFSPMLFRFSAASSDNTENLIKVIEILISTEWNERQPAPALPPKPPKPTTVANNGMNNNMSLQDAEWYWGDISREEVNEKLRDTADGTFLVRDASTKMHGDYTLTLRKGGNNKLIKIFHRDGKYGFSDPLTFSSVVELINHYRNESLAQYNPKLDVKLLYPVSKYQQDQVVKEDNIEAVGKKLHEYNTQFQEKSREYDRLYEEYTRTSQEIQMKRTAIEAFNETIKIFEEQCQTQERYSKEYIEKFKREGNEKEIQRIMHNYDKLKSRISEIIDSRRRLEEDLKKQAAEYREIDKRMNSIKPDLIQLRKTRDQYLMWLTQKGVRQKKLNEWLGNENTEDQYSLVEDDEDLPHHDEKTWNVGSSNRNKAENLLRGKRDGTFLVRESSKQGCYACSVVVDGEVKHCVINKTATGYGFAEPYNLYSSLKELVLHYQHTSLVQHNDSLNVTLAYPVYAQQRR
Procedure: as §1, §2, §3, §4

p110γ = p110γ (Homo sapiens, UniProt P48736); assay: Transcreener KINASE Assay, kinase inhibition of p110γ; conditions: for PI3Kγ IH % @ 1 uM: 1 uM test compound; for IC50: read-out: PI3Kγ IC50
Chain of p110γ (P48736 whole entry): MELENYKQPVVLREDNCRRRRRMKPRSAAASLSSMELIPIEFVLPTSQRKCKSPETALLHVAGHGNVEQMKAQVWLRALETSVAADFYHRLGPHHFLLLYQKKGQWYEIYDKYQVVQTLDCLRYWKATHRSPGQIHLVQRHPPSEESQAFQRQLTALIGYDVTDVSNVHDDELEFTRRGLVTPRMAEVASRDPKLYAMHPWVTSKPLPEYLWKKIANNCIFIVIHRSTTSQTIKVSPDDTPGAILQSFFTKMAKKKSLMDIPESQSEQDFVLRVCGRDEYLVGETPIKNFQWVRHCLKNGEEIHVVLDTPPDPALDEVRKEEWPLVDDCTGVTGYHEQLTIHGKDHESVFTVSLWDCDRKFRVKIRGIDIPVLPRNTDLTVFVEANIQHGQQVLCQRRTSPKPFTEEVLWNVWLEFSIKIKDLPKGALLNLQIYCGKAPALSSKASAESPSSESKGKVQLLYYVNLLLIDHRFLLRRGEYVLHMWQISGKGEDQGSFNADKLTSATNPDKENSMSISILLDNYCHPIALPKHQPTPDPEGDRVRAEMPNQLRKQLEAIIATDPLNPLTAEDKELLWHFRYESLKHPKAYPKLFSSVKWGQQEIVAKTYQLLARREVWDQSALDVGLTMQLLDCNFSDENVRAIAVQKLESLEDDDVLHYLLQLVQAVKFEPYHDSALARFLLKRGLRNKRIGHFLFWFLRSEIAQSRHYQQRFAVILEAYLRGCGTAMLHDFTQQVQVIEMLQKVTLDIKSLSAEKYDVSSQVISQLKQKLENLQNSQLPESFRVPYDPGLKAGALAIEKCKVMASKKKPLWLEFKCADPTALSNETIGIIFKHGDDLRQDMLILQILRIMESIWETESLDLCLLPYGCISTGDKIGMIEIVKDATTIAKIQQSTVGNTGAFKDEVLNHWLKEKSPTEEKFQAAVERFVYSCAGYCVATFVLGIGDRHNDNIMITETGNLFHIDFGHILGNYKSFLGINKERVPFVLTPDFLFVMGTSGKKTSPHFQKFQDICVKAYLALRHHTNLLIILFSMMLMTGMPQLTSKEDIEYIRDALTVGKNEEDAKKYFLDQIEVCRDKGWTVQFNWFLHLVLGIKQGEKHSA
Procedure: Kinase Inhibition assays of p110α/p85α, p110β/p85α, p110δ/p85α and p110γ PI3K kinases including p110α/p85α, p110δ/p85α and p110γ are purchased from Invitrogen, and p110β/p85α is from Millipore. Primary screening data and IC50 values are measured using Transcreener™ KINASE Assay (Bellbrook, Catalog #3003-10K). […] It is a universal, homogenous, high throughput screening (HTS) technology using a far-red, competitive fluorescence polarization immunoassay based on the detection of ADP to monitor the activity of enzymes that catalyze group transfer reactions. Briefly, the Transcreener KINASE Assay is designed as a simple two-part, endpoint assay. […] The plate is sealed and incubated for 80 min at room temperature. Next, 25 ul ADP detection mix is added per well. The plate is sealed again and incubated for 60 min at room temperature, and then measure fluorescence polarization by Tecan Infinite F500 Reader. Data is analyzed and IC50s are generated using the add-in software for Microsoft Excel, Xlfit™ (version 2.0).

Chain of p110β/p85α (P42338 whole entry): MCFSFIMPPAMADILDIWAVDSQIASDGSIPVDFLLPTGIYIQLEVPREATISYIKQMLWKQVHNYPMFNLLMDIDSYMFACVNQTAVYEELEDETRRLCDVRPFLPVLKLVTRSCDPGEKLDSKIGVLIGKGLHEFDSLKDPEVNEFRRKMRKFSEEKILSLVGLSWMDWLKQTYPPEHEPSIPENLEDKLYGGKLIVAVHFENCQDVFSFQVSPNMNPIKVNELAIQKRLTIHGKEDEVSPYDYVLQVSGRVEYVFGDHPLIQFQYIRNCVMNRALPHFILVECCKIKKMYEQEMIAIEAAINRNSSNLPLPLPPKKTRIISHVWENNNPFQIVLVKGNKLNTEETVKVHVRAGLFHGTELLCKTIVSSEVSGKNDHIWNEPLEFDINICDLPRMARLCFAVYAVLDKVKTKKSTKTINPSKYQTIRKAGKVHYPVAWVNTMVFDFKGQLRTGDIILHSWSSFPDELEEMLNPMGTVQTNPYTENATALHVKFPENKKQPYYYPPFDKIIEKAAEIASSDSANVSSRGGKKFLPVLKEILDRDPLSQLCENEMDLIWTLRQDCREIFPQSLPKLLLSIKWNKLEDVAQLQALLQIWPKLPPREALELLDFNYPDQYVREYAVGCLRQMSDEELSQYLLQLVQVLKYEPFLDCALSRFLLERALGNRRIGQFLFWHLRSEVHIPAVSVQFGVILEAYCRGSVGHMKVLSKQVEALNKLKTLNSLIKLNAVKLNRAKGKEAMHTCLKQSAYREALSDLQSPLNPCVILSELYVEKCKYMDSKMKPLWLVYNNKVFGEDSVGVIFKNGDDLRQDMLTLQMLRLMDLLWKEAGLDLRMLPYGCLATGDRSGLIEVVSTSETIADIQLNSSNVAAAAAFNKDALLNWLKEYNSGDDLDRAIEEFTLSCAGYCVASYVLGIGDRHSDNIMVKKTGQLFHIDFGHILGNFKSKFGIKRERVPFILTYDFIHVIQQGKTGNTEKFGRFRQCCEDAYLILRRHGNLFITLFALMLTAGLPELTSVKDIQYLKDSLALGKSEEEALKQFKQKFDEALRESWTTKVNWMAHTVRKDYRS
Chain of p110β/p85α (P27986 2-724 partner): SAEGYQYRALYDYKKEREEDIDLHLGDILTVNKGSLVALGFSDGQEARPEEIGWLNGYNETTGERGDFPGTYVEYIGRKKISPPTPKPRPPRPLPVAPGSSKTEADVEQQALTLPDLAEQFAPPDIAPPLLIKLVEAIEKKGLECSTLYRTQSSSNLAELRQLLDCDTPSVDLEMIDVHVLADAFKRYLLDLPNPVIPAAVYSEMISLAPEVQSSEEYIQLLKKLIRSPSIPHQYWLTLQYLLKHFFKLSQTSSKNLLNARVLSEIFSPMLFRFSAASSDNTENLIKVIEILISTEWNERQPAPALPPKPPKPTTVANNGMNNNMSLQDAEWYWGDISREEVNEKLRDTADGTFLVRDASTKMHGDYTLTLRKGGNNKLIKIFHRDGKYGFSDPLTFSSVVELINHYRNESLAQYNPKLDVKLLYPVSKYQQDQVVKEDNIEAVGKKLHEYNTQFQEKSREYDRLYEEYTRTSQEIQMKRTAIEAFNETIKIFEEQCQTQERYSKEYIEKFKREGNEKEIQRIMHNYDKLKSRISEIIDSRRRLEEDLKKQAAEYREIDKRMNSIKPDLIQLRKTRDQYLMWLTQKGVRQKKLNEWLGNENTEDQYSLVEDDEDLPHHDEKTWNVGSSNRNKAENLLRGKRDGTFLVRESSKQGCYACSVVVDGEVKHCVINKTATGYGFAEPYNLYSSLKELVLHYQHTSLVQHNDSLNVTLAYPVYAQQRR

SMILES	PI3Kβ IH % @ 1 uM (p110β/p85α) [%]	IC50 (p110β/p85α) [nM]	PI3Kδ IH % @ 1 uM (p110δ/p85α) [%]	IC50 (p110δ/p85α) [nM]	PI3Kγ IH % @ 1 uM (p110γ) [%]	IC50 (p110γ) [nM]
C[S+]([O-])c1c[nH]c2ncnc(N3CCC[C@H]3c3nn4ccc(Cl)c4c(=O)n3-c3cccc(F)c3)c12 (single isomer, unassigned) [Compound 387]	39.6	–	98.2	7	>100	9
C#Cc1ccn2nc([C@@H]3CCN3c3ncnc4[nH]cc(C#N)c34)n(-c3ccccc3)c(=O)c12 [Compound 105, (S)-4-(2-(5-ethynyl-4-oxo-3-phenyl-3,4-dihydropyrrolo[2,1-f][1,2,4]triazin-2-yl)azetidin-1-yl)-7H-pyrrolo[2,3-d]pyrimidine-5-carbonitrile]	16.0	–	90.0	15	90.4	80
O=c1c2c(Cl)ccn2nc([C@@H]2COCCN2c2ncnc3[nH]cnc23)n1-c1ccccc1 [Compound 153]	56.5	–	>100	–	85.8	–
Cc1ccn2nc([C@@H]3CCCN3c3ncnc(N)c3Cl)n(-c3ccccc3)c(=O)c12 [Compound 45]	71.9	795	100	–	80.9	172
N#Cc1c[nH]c2ncnc(N3CCC[C@H]3c3nn4ccc(C5CC5)c4c(=O)n3-c3ccccc3)c12 [Compound 52]	8.8	–	87.2	110	89.3	107
CC(=O)c1cnc(N)nc1N[C@H](C)c1cc2ncc(Cl)n2c(=O)n1-c1ccccc1 (single isomer, unassigned) [Compound 448]	55.9	–	98.8	17	82.3	105
CC(=O)c1c(N)ncnc1NC(C)c1cn2ccc(Cl)c2c(=O)n1-c1ccccc1 (centres unmarked) [Compound 274]	61.6	–	97.8	3	86.8	101
CC(Nc1ncnc2[nH]cc(S(C)(=O)=O)c12)c1cc2ncc(Cl)n2c(=O)n1-c1ccccc1 (centres unmarked) [Compound 286]	25.2	–	88.8	29	56.2	–
CS(=O)(=O)[C@H]1C[C@@H](c2nn3ccc(Cl)c3c(=O)n2-c2ccccc2)N(c2ncnc3[nH]cnc23)C1 [Compound 366]	74.4	300	97.1	11	86.8	89
CC(C)Cn1c([C@@H]2CCCN2c2ncnc3[nH]cc(C#N)c23)nn2c(F)ccc2c1=O [Compound 107, (S)-4-(2-(7-fluoro-3-isobutyl-4-oxo-3,4-dihydropyrrolo[2,1-f][1,2,4]triazin-2-yl)pyrrolidin-1-yl)-7H-pyrrolo[2,3-d]pyrimidine-5-carbonitrile]	34.5	–	98.6	5	71.8	153
CC(=O)c1n[nH]c2ncnc(N3CCC[C@H]3c3nn4ccc(Cl)c4c(=O)n3-c3ccccc3)c12 [Compound 297]	61.5	–	96.0	6	92.7	15
CC(Nc1ncnc(N)c1C#N)c1cc2c(Cl)cc(Cl)n2c(=O)n1-c1ccccc1 (centres unmarked) [Compound 126]	90.9	25	>100	1	>100	20

The remaining lines, values ahead:

PI3Kβ IH % @ 1 uM (p110β/p85α) [%]	IC50 (p110β/p85α) [nM]	PI3Kδ IH % @ 1 uM (p110δ/p85α) [%]	IC50 (p110δ/p85α) [nM]	PI3Kγ IH % @ 1 uM (p110γ) [%]	IC50 (p110γ) [nM]	SMILES
95.3	12	99.2	1	>100	5	N#Cc1c[nH]c2ncnc(N3C[C@@H](C#N)C[C@H]3c3nn4ccc(Cl)c4c(=O)n3-c3ccccc3)c12 [Compound 360]
20.1	–	91.6	10	94.7	120	CC(=O)c1cnc(N)nc1N1CC[C@H]1c1nn2ccc(Cl)c2c(=O)n1-c1cccc(C)n1 [Compound 479]
>100	31	>100	1	>100	9	N#Cc1c[nH]c2ncnc(N3C[C@@H](O)C[C@H]3c3nn4ccc(Cl)c4c(=O)n3-c3ccccc3)c12 [Compound 71]
17.8	–	61.9	–	70.2	158	CC(=O)c1n[nH]c2ncnc(N3CC[C@H]3c3nn4ccc(Cl)c4c(=O)n3-c3ccccc3)c12 [Compound 298]
94.8	44	>100	1	>100	3	N#C[C@H]1C[C@@H](c2nn3ccc(Cl)c3c(=O)n2-c2ccccc2)N(c2ncnc3[nH]cnc23)C1 [Compound 359]
39.8	–	98.0	34	96.3	45	Cc1nc(N)nc(N2CC[C@H]2c2nn3ccc(Cl)c3c(=O)n2-c2ccccc2)c1Cl [Compound 377, (S)-2-(1-(2-amino-5-chloro-6-methylpyrimidin-4-yl)azetidin-2-yl)-5-chloro-3-phenylpyrrolo[2,1-f][1,2,4]triazin-4(3H)-one]
68.8	242	>100	2	90.4	3	CC(=O)c1cnc(N)nc1N1CCC[C@H]1c1nn2ccc(Cl)c2c(=O)n1-c1ccccc1 [Compound 369, (S)-2-(1-(5-acetyl-2-aminopyrimidin-4-yl)pyrrolidin-2-yl)-5-chloro-3-phenylpyrrolo[2,1-f][1,2,4]triazin-4(3H)-one]
79.3	273	91.2	23	91.4	6	CC(=O)c1cnc(N)nc1N1C[C@H](C)C1c1nn2ccc(F)c2c(=O)n1-c1ccc(F)cc1 (some centres unmarked) [Compound 438]
86.1	47	>100	2	94.1	26	N#Cc1c[nH]c2ncnc(N3C[C@@H](F)C[C@H]3c3nn4ccc(F)c4c(=O)n3-c3ccccn3)c12 [Compound 346]
31.7	–	>100	58	76.1	351	C[C@H]1CN(c2nc(N)ncc2C#N)[C@@H]1c1nn2ccc(Cl)c2c(=O)n1-c1ccccn1 [Compound 477]
35.9	–	96.8	36	89.3	13	Nc1nc(N2CC[C@H]2c2nn3ccc(Cl)c3c(=O)n2-c2ccccc2)n2nccc2n1 [Compound 137]
51.2	–	96.9	39	75.6	312	C[S@+]([O-])c1c[nH]c2ncnc(N3C[C@@H](C#N)C[C@H]3c3nn4ccc(Cl)c4c(=O)n3-c3cccc(F)c3)c12 [Compound 348, (3S,5S)-5-(5-chloro-3-(3-fluorophenyl)-4-oxo-3,4-dihydropyrrolo[2,1-f][1,2,4]triazin-2-yl)-1-(5-((S)-methylsulfinyl)-7H-pyrrolo[2,3-d]pyrimidin-4-yl)pyrrolidine-3-carbonitrile]
96.4	32	>100	1	>100	3	Cc1nc(N)nc(N2C[C@H](C)[C@H]2c2nn3ccc(Cl)c3c(=O)n2-c2ccccn2)c1C#N [Compound 478]
25.1	–	84.8	242	54.8	–	O=c1c2c(Cl)ccn2nc([C@@H]2CCCN2c2ncnc3[nH]nnc23)n1-c1ccccc1 [Compound 220]
